Results from paper PMC12090182, “Repurposing of the RIPK1-Selective Benzo[1,4]oxazepin-4-one Scaffold for the Development of a Type III LIMK1/2 Inhibitor” (ACS Chemical Biology, 2025).
Values joined by “and” are separate entries in the source; they are usually repeats but may differ in a detail not shown here. Equal values may be shown once.

Columns and labels:
Type in all cases: cell-based
[1] = tested on: HEK293T cells; conditions: HEK293T, 10 µM
Protocol: (§1) To assess the influence on cell health, a high-content screening in living cells called the multiplex high-content assay, as described previously by Tjaden et al., was performed.[38] In brief, HEK293T (ATCC CRL-1573) and U2OS (ATCCHTB-96) were cultured in DMEM plus L-glutamine (high glucose) supplemented by 10% FBS (Gibco) and penicillin/streptomycin (Gibco). MRC-9 fibroblasts ([…]) were cultured in EMEM plus L-glutamine supplemented by 10% FBS (Gibco) and penicillin/streptomycin (Gibco). Cells were seeded at a density of 1250 cells per well in a 384-well plate in a culture medium (cell culture microplate, PS, f-bottom, μClear, 781091, Greiner), with a volume of 50 μL per well. All outer wells were filled with 100 μL of PBS buffer (Gibco). […] The cell shape and fluorescence were measured before treatment and 12, 24, and 48 h after compound treatment using the CQ1 high-content confocal microscope (Yokogawa, Musashino, Japan). […] The compounds were tested at 1 and 10 μM, respectively. Acquired images of the cells were processed using Yokogawa CellPathfinder software (v3.04.02.02). […] Results were normalized to cells exposed to 0.1% DMSO. All compounds were tested in biological duplicates, and SEM (standard error of mean) was calculated of biological duplicates.

[2] = tested on: U2OS cells; conditions: U2OS; 10 µM; 0 h after treatment
Protocol: as §1

[3] = tested on: MRC-9 cells; assay: Multiplex high-content viability assessment; conditions: human fibroblast, 10 µM
Protocol: as §1

[4] = target: LIMK1 (Homo sapiens, UniProt P53667); assay: NanoBRET cellular target engagement; set-up: purchased Carna Biosciences; conditions: LIMK1, HEK293T cells
LIMK1, sequence (P53667 whole entry): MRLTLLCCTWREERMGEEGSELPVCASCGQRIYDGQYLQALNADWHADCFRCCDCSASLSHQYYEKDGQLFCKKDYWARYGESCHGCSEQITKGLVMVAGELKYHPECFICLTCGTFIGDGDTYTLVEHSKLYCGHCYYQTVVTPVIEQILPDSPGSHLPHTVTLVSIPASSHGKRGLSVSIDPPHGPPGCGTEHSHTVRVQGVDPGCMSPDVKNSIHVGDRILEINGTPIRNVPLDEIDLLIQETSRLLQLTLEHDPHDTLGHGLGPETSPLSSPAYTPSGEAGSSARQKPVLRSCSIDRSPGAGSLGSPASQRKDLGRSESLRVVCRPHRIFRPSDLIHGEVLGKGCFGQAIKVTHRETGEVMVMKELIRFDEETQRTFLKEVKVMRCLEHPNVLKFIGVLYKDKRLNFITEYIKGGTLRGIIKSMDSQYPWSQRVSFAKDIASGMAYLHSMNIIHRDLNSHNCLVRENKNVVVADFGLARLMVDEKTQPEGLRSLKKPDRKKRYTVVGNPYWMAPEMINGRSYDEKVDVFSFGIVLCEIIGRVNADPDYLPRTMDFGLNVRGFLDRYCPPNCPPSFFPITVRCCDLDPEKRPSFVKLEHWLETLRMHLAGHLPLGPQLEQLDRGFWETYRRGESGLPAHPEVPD
Protocol: (§2) The assay was performed as described previously.[31],[32] In brief, full-length LIMK1/2, RIPK1, BTK, and LRRK2 cloned in a frame in a NanoLuc-vector (Promega) were transfected into HEK293T cells (ATCC CRL-1573) using FuGENE HD (Promega, E2312), and proteins were allowed to express for 20 h. The serially diluted inhibitor and NanoBRET Kinase Tracer (Promega) used at the previously determined Tracer KD,app (Table S1) were pipetted into white 384-well plates (Greiner 781 207) using an ECHO 550 acoustic dispenser (Labcyte). The corresponding transfected cells were added and reseeded at a density of 2 × 10^5 cells/mL after trypsinization and resuspension in Opti-MEM without phenol red (Life Technologies). The system was allowed to equilibrate for 2 h at 37 °C and 5% CO2 prior to BRET measurements. To measure BRET, a NanoBRET Nano-Glo substrate and an extracellular NanoLuc inhibitor (Promega, N2160) were added as per the manufacturer's protocol, and filtered luminescence was measured on a PHERAstar plate reader (BMG Labtech) equipped with a luminescence filter pair (a 450 nm BP filter (donor) and a 610 nm LP filter (acceptor)). Competitive displacement data were then plotted using GraphPad Prism 10 software using a normalized three-parameter curve fit with the following equation: Y = 100/( [drawing 1] ).

[5] = target: LIMK2 (Homo sapiens, UniProt P53671); assay: NanoBRET cellular target engagement; set-up: full-length LIMK1/2, RIPK1, BTK, and LRRK2 cloned in a frame in a NanoLuc-vector (Promega); host or cells: HEK293T; conditions: LIMK2, HEK293T cells
LIMK2, sequence (P53671 whole entry): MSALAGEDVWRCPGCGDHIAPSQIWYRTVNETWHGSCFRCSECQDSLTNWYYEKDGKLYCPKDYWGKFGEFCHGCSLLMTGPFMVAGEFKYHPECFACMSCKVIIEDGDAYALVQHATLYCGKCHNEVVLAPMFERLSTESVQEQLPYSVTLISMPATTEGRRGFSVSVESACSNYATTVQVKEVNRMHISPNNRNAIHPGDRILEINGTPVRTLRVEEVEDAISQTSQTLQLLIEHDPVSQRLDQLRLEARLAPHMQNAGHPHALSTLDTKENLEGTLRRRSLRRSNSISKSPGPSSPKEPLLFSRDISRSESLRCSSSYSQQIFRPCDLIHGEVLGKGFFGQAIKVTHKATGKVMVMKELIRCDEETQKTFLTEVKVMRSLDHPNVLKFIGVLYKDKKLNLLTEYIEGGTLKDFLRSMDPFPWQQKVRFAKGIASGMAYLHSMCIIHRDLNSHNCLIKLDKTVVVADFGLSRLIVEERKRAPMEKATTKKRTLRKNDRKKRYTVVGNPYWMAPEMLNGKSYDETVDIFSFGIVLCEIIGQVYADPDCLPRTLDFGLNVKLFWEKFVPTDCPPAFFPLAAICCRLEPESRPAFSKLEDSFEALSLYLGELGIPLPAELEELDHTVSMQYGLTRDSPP
Protocol: as §2

| EC50 [4] [µM] | EC50 [5] [µM] | Compound | Population with membrane disruption (%) ([1]; 0 h after treatment) | Population Healthy Nuclei (%) ([1]; 12 h after treatment) | Population cell that influence microtubule strucutre (%) ([1]; 12 h after treatment) | Population apoptotic cell (%) ([1]; 48 h after treatment) | Population with increased mitochondrial mass (%) [2] | Population Healthy Nuclei (%) ([3]; 0 h after treatment) | Population Fragmented Nuclei (%) ([3]; 12 h after treatment) | Population Healthy Nuclei (%) ([3]; 12 h after treatment) | Population apoptotic cell (%) ([3]; 12 h after treatment) | Population Fragmented Nuclei (%) ([3]; 24 h after treatment) | Population Healthy Nuclei (%) ([3]; 24 h after treatment) | Population Fragmented Nuclei (%) ([3]; 48 h after treatment) | Population Healthy Nuclei (%) ([3]; 48 h after treatment) |
| --- | --- | --- | --- | --- | --- | --- | --- | --- | --- | --- | --- | --- | --- | --- | --- |
| – | – | CN[C@@H]1C[C@H]2O[C@@](C)([C@@H]1OC)n1c3ccccc3c3c4c(c5c6ccccc6n2c5c31)C(=O)NC4 [staurosporine] | 0.00 | 64.72% and 69.22% and 71.09% | 37.22% and 35.67% | 60.00% and 75.00% and 76.47% | 2.11% and 3.70% and 5.56% | 63.64% and 62.50% and 53.61% and 54.10% | 57.03% and 59.76% and 57.04% and 49.59% | 32.43% and 29.76% and 33.41% and 38.90% | 48.72% and 46.51% and 42.50% and 50.00% | 56.12% and 54.77% and 50.00% and 53.32% | 37.01% and 35.97% and 41.62% and 36.60% | 53.07% and 56.00% and 48.62% and 54.18% | 39.48% and 36.86% and 44.48% and 39.35% |
| 42 | 38 | CN1C(=O)[C@@H](N2CCc3cn(Cc4ccccc4)nc3C2=O)COc2ccccc21 [TP-030-1] | – | – | – | – | – | – | – | – | – | – | – | – | – |
